Reference: US20210292320A1, “FUNCTIONALIZED HETEROCYCLIC COMPOUNDS AS ANTIVIRAL AGENTS” (Enanta Pharmaceuticals, Inc., priority 2020, published 2021)

Assays:
[1] = tested on: HBV viral product accumulation in 2.2.15 cells; assay: HBV antiviral activity in 2.2.15 cells (qPCR of cell lysates or HBsAg/HBeAg ELISA of supernatants, day 5); format: cell-based; details: Hepatitis B virus, 120 h, 5 days treatment, 0.5% DMSO, 50% reduction of viral product accumulation relative to no drug controls, irrespective of readout
Method: 2.2.15 cells are passaged upon attaining confluency in DMEM/F12 media in the presence of 10% FBS, Penn/Strep, and 250 ug/mL G418. Novel compounds are 5 fold serially diluted in DMSO and added to 96 well plates containing 35,000 cells/well at a 1:200 dilution so that the final concentration of DMSO is 0.5%. On day 5, post treatment cell lysates and supernatants are harvested for analysis.
Cells are lysed using Agilent Sidestep Lysis buffer, diluted 1:100 and quantified via quantitative real time PCR. Commercially available ELISA kits are used to quantitate the viral proteins HBsAg (Alpco) or HBeAg (US Biological) by following the manufacturer's recommended protocol after diluting samples to match the linear range of their respective assays. Irrespective of readout, compound concentrations that reduce viral product accumulation in the cell lysates or supernatants by 50% relative to no drug controls (EC50) are reported; EC50 ranges are as follows: A<0.1 μM; B 0.2-1 μM; C>1 μM.

[2] = Compound induced cellular toxicity in HepG2 cells (ATPlite 1Step, total ATP levels, day 3); format: cell-based; details: human, three days, 0.5% DMSO, 50% reduction of total ATP levels relative to no drug controls
Method: At day 3, post seeding cells are treated with ATPlite 1Step according to the manufacturer's instructions.

In the case of `CC(C)(C)[C@@H]1Cn2nc(-c3ccoc3)c(-c3ccoc3)c2-c2cc(O)c(C(=O)O)cc21` [Example 9, (S)-6-(tert-butyl)-1,2-di(furan-3-yl)-9-hydroxy-5,6-dihydropyrazolo[5,1-a]isoquinoline-8-carboxylic acid], the EC50 [1] is reported as > 1000 nM.

With `CC(C)(C)[C@@H]1Cn2nc(-c3ccccc3F)cc2-c2cc(O)c(C(=O)O)cc21` [Example 3, (S)-6-(tert-butyl)-2-(2-fluorophenyl)-9-hydroxy-5,6-dihydropyrazolo[5,1-a]isoquinoline-8-carboxylic acid] the EC50 [1] was > 1000 nM.

For `CC(C)(C)[C@@H]1Cn2nc(-c3cccc(F)c3)cc2-c2cc(O)c(C(=O)O)cc21` [Example 4, (S)-6-(tert-butyl)-2-(3-fluorophenyl)-9-hydroxy-5,6-dihydropyrazolo[5,1-a]isoquinoline-8-carboxylic acid], the EC50 [1] was > 1000 nM.

In the case of `CC(C)(C)[C@@H]1Cn2nc(-c3ccccc3)c(-c3ccccc3)c2-c2cc(O)c(C(=O)O)cc21` [Example 8, (S)-6-(tert-butyl)-9-hydroxy-1,2-diphenyl-5,6-dihydropyrazolo[5,1-a]isoquinoline-8-carboxylic acid], the CC50 at 3 days [2] is reported as > 25000 nM and the EC50 [1] is reported as < 100 nM.

With `CC(C)(C)[C@@H]1Cn2nc(-c3cccc(F)c3)c(-c3cccc(F)c3)c2-c2cc(O)c(C(=O)O)cc21` [Example 5, (S)-6-(tert-butyl)-1,2-bis(3-fluorophenyl)-9-hydroxy-5,6-dihydropyrazolo[5,1-a]isoquinoline-8-carboxylic acid] the EC50 [1] was > 1000 nM.

With `CC(C)(C)[C@@H]1Cn2nc(-c3ccccc3F)c(-c3ccccc3F)c2-c2cc(O)c(C(=O)O)cc21` [Example 7, (S)-6-(tert-butyl)-1,2-bis(2-fluorophenyl)-9-hydroxy-5,6-dihydropyrazolo[5,1-a]isoquinoline-8-carboxylic acid] the CC50 at 3 days [2] was > 25000 nM and the EC50 [1] was < 100 nM.

With `CC(C)(C)[C@@H]1Cn2nc(-c3ccc(F)cc3)c(-c3ccc(F)cc3)c2-c2cc(O)c(C(=O)O)cc21` [Example 6, (S)-6-(tert-butyl)-1,2-bis(4-fluorophenyl)-9-hydroxy-5,6-dihydropyrazolo[5,1-a]isoquinoline-8-carboxylic acid] the CC50 at 3 days [2] was > 25000 nM and the EC50 [1] was < 100 nM.

In the case of `CC(C)(C)[C@@H]1Cn2nc(-c3ccccc3)cc2-c2cc(O)c(C(=O)O)cc21` [Example 2, (S)-6-(tert-butyl)-9-hydroxy-2-phenyl-5,6-dihydropyrazolo[5,1-a]isoquinoline-8-carboxylic acid], the EC50 [1] is reported as > 1000 nM.

For `CC(C)(C)[C@@H]1Cn2nc(-c3ccc(F)cc3)cc2-c2cc(O)c(C(=O)O)cc21` [Example 1, (S)-6-(tert-butyl)-2-(4-fluorophenyl)-9-hydroxy-5,6-dihydropyrazolo[5,1-a]isoquinoline-8-carboxylic acid], the EC50 [1] was > 1000 nM.
